PubChem BioAssay AID1918957 (Molecular Pharmacology Branch, DTP, NCI, 2023)

Tested on: NCI-H1876 complex spheroid viability
Test: Anticancer human tumor NCI-H1876 cell line growth inhibition [LSD1];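 further: spheroids exposed to compounds for one week before readout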;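 on viability, T/C: 100% = DMSO vehicle-treated spheroids so lower means fewer viable cells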
Details: for IC50: curve of first compound; for viability, T/C: stronger effect = lower value; active means viability on the fitted dose curve at most 10% of control; inactive means the rest
Source text: Multicellular complex tumor spheroid response to LSD1 Inhibitor Iadademstat in combination with a variety of drugs and investigational agents in selected tumor cell lines
The current study was undertaken to assess response to LSD1 inhibitors in combination with standard-of-care drugs and investigational agents in solid tumor complex spheroid models as well as in the K-562 leukemia. Complex spheroids include a stromal component modeled by human endothelial cells (HUVEC) and fibroblasts modeled by human mesenchymal stem cells (MSCs). The concentration ranges selected for each drug and investigational agent were based upon clinically achievable concentrations if the clinical Cmax of the agent was known.
Compounds. The drugs and investigational agents used in this study are listed on Table 1. All of the agents used, including staurosporine (NSC755774) and gemcitabine (NSC613327), were obtained from the Developmental Therapeutics Program, NCI. FDA-approved anticancer drugs are available from the NCI at http://dtp.nci.nih.gov/branches/dscb/oncology_drugset_explanation.html. Drugs and investigational agents were >95% pure by proton nuclear magnetic resonance (NMR) and liquid chromatography/mass spectrometry (LC/MS). Stock solutions were prepared at 400x in DMSO, stored at -70 degrees C, and diluted in fresh medium prior to their use. The final concentration of DMSO in cell culture wells never exceeded 0.25% (v/v). The FDA-approved anticancer drug set is available from the Developmental Therapeutics Program at https://dtp.cancer.gov/organization/dscb/obtaining/available_plates.htm. All drugs and investigational agents were tested over a range starting from a high concentration at or near the clinical Cmax and decreasing in half-log increments. If the clinical Cmax for an agent had not been determined, the highest concentration tested was 10 microM.
Cell Lines. The patient-derived cancer cell (PDC) lines: 292921-168-R-J2-PDC, K24384-001-R-PDC, and 521955-158-R2-J5-PDC pancreatic carcinomas, 556581-035-R-J1 ovarian carcinoma, 324938-238-R-J1-PDC, 855422-203-R-J1-PDC and 883617-216-R-J1-PDC urothelial bladder carcinomas, 743489-274-T-PDC renal cell carcinoma, 138582-R-J1 Merkel cell tumor, K60290-347-R-J1 and K57222-313-R-J1-PDC glioblastomas, 653999-131-R-J2-PDC, LG0703-F948-PDC, and 349418-098-R-PDC non-small cell lung carcinomas, 885512-296-R-J2-PDC, 171881-019-R-J1-PDC breast carcinomas and 186277-243-T-J2-PDC and 233499-124-R-J2-PDC colon carcinomas were obtained from the NCI Patient-Derived Models Repository (PDMR, https://pdmr.cancer.gov). The established cell lines NCI/ADR-RES (RRID:CVCL_14520 and OVCAR-5 (RRID:CVCL_1628) ovarian carcinomas, 786-O (RRID:CVCL_1051) and A498 (RRID:CVCL_A498) renal cell carcinoma, NCI-H211 (ATCC, cat. CRL-5824; RRID:CVCL_1529), NCI-H196 (ATCC, cat. CRL-5823, RRID:CVCL_1509), SW 1271 (ATCC, cat. CRL-2177, RRID:CVCL_1716) and NCI-H1876 (ATCC, cat. CRL-5902, RRID:CVCL_1503) small cell lung carcinomas, MDA-MB-231 (RRID:CVCL_0062) and MDA-MB-468 (RRID:CVCL_0419)breast carcinomas (10-12). Pooled donor human umbilical vein endothelial cells (HUVEC, Lonza, cat. CC-2519) and human mesenchymal stem cells (hMSC, Lonza, cat. PT-2501) were purchased from Lonza (Walkersville, MD).
Cell Culture. All cells were maintained in an incubator at 37 degrees C and 5% CO2 with 95% humidity. The PDC lines were cultured according to standard operating procedures established by the NCI PDMR (https://pdmr.cancer.gov). Briefly all PDCs were thawed and cultured in Matrigel-coated flasks prepared with a working solution of 1X Ham's F-12 nutrient mix, without supplementation (Invitrogen, Waltham, MA, cat. 11765054), 100 U/mL penicillin-streptomycin (Invitrogen, cat. 15140122), and 2.5% Matrigel (Corning Inc., Corning, NY, cat. 354248) for the first three passages. […]

[1] = second compound 0.1 µM, first compound 0.000949 µM
[2] = second compound 0.1 µM, first compound 0.003 µM
[3] = second compound 0.1 µM, first compound 0.00949 µM
[4] = second compound 0.1 µM, first compound 0.03 µM
[5] = second compound 0.1 µM, first compound 0.0949 µM
[6] = second compound 0.1 µM, first compound 0.3 µM
[7] = second compound 0.316 µM, first compound 0.000949 µM
[8] = second compound 0.316 µM, first compound 0.003 µM
[9] = second compound 0.316 µM, first compound 0.00949 µM
[10] = second compound 0.316 µM, first compound 0.03 µM
[11] = second compound 0.316 µM, first compound 0.0949 µM
[12] = second compound 0.316 µM, first compound 0.3 µM
[13] = second compound 1 µM, first compound 0.000949 µM
[14] = second compound 1 µM, first compound 0.003 µM
[15] = second compound 1 µM, first compound 0.00949 µM
[16] = second compound 1 µM, first compound 0.03 µM
[17] = second compound 1 µM, first compound 0.0949 µM
[18] = second compound 1 µM, first compound 0.3 µM
[19] = second compound 3.16 µM, first compound 0.000949 µM
[20] = second compound 3.16 µM, first compound 0.003 µM
[21] = second compound 3.16 µM, first compound 0.00949 µM
[22] = second compound 3.16 µM, first compound 0.03 µM
[23] = second compound 3.16 µM, first compound 0.0949 µM
[24] = second compound 3.16 µM, first compound 0.3 µM
[25] = second compound 10 µM, first compound 0.000949 µM
[26] = second compound 10 µM, first compound 0.003 µM
[27] = second compound 10 µM, first compound 0.00949 µM
[28] = second compound 10 µM, first compound 0.03 µM
[29] = second compound 10 µM, first compound 0.0949 µM
[30] = second compound 10 µM, first compound 0.3 µM

CCc1c2c(nc3ccc(O)cc13)-c1cc3c(c(=O)n1C2)COC(=O)[C@]3(O)CC + NC1CC1c1ccc(-c2cccc(O)c2)cc1
< 0.949 nM: IC50 (second compound 0.1 µM) | IC50 (second compound 0.316 µM) | IC50 (second compound 1 µM) | IC50 (second compound 3.16 µM) | IC50 (second compound 10 µM)
active: viability, T/C [1] 5.07% | viability, T/C [2] 3.61% | viability, T/C [3] 1.59% | viability, T/C [4] 0.3% | viability, T/C [5] 0.22% | viability, T/C [6] 0.31% | viability, T/C [7] 5.4% | viability, T/C [8] 3.71% | viability, T/C [9] 1.52% | viability, T/C [10] 0.19% | viability, T/C [11] 0.15% | viability, T/C [12] 0.25% | viability, T/C [13] 5.18% | viability, T/C [14] 3.15% | viability, T/C [15] 1.5% | viability, T/C [16] 0.39% | viability, T/C [17] 0.6% | viability, T/C [18] 0.3% | viability, T/C [19] 5.73% | viability, T/C [20] 3.61% | viability, T/C [21] 1.99% | viability, T/C [22] 0.43% | viability, T/C [23] 0.32% | viability, T/C [24] 0.32% | viability, T/C [25] 6.65% | viability, T/C [26] 4.79% | viability, T/C [27] 3.56% | viability, T/C [28] 0.81% | viability, T/C [29] 0.56% | viability, T/C [30] 0.86%

Nc1ccn(C2OC(CO)C(O)C2(F)F)c(=O)n1 (stereo not given) + NC1CC1c1ccc(-c2cccc(O)c2)cc1
inactive: viability, T/C [1] 104% | viability, T/C [2] 93.9% | viability, T/C [3] 24.8% | viability, T/C [7] 103% | viability, T/C [8] 91.5% | viability, T/C [9] 26% | viability, T/C [13] 108% | viability, T/C [14] 87.2% | viability, T/C [15] 28.7% | viability, T/C [19] 104% | viability, T/C [20] 87% | viability, T/C [21] 29.9% | viability, T/C [25] 101% | viability, T/C [26] 91.4% | viability, T/C [27] 34% | viability, T/C [28] 13.2% | viability, T/C [29] 10.4% | viability, T/C [30] 11.8%
6.33 nM: IC50 (second compound 3.16 µM)
6.24 nM: IC50 (second compound 0.1 µM) | IC50 (second compound 1 µM)
6.23 nM: IC50 (second compound 0.316 µM)
active: viability, T/C [4] 9.9% | viability, T/C [5] 8.25% | viability, T/C [6] 7.07% | viability, T/C [10] 10.9% | viability, T/C [11] 7.72% | viability, T/C [12] 7.02% | viability, T/C [16] 9.78% | viability, T/C [17] 8.57% | viability, T/C [18] 7.79% | viability, T/C [22] 10.1% | viability, T/C [23] 8.03% | viability, T/C [24] 7.36%
6.89 nM: IC50 (second compound 10 µM)
